Laboratory results as given in ChEMBL document CHEMBL1153896, “Antiproliferative cardenolide glycosides of Elaeodendron alluaudianum from the Madagascar Rainforest” (Bioorg Med Chem, 2009).

Assays:
Assay type in all cases: functional, cell-based
A2780 = experiment: Antiproliferative activity against human A2780 cells after 96 hrs by celltiter-glo luminescent cell viability assay; conditions: A2780, 96 h
U-937 = experiment: Antiproliferative activity against human U937 cells after 96 hrs by celltiter-glo luminescent cell viability assay; conditions: U-937, 96 h
[1] = Antiproliferative activity against HSG cells; conditions: Homo sapiens
KB = experiment: Antiproliferative activity against human KB cells

| Structure (SMILES) | IC50 (A2780) [nM] | IC50 (U-937) [nM] | IC50 [1] [nM] | IC50 (KB) [nM] |
| --- | --- | --- | --- | --- |
| C[C@H]1O[C@@H](O[C@H]2CC[C@]3(CO)[C@H]4[C@H](O)C[C@]5(C)[C@@H](C6=CC(=O)OC6)CC[C@]5(O)[C@@H]4CC[C@]3(O)C2)[C@H](O)[C@H](O)[C@@H]1O[C@@H]1O[C@H](CO)[C@@H](O)[C@@H](O)[C@H]1O [ELAEODENDROSIDE V] | 120 | 150 | – | – |
| C[C@H]1O[C@@H](O[C@H]2[C@H](O)[C@H](O)[C@H](O[C@H]3CC[C@]4(C=O)[C@H]5[C@H](O)C[C@]6(C)[C@@H](C7=CC(=O)OC7)CC[C@]6(O)[C@@H]5CC[C@]4(O)C3)O[C@@H]2C)[C@@H](O)[C@@H](O)[C@@H]1O | – | – | 49 | – |
| C[C@H]1O[C@@H](O[C@H]2CC[C@]3(C=O)[C@H]4[C@H](O)C[C@]5(C)[C@@H](C6=CC(=O)OC6)CC[C@]5(O)[C@@H]4CC[C@]3(O)C2)[C@H](O)[C@H](O)[C@H]1O | – | – | – | 74 |
| C[C@H]1O[C@@H](O[C@H]2CC[C@]3(C=O)[C@H]4[C@H](O)C[C@]5(C)[C@@H](C6=CC(=O)OC6)CC[C@]5(O)[C@@H]4CC[C@]3(O)C2)[C@H](O)[C@H](O)[C@@H]1O[C@@H]1O[C@H](CO)[C@@H](O)[C@@H](O)[C@H]1O [ELAEODENDROSIDE W] | 70 | 80 | – | – |
